Test systems include CCRF-CEM leukemia; EKVX NSCLC; HS 578T breast; MALME-3M melanoma; NCI-H226 lung; OVCAR-4 ovarian; RPMI-8226 leukemia; RXF 393 renal; TK-10 renal; UACC-62 melanoma.
Holding throughout (experiment): NCI tumour cell line growth inhibition, 48 h

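Method: 48-hour compound exposure of cells in 96-well plates, five concentrations, linear interpolation of endpoints. GI50 is the concentration that inhibits growth by half. Definition used: TGI = concentration required for complete inhibition of growth.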 Some results are limits rather than exact numbers.

In the case of `c1ccc(Cn2cc3c(c2)-c2oncc2CC3)cc1`, the GI50 was 348 nM in the assay with CCRF-CEM leukemia; 2740 nM with EKVX NSCLC; 887 nM with HS 578T breast; 17.9 µM in the assay on MALME-3M melanoma; 5.91 µM in the assay with NCI-H226 lung; 3260 nM in the assay with OVCAR-4 ovarian. Moreover, the GI50 in the assay on RPMI-8226 leukemia is 285 nM; in the assay with RXF 393 renal it was 1120 nM; in the assay with TK-10 renal, 2.98 µM; with UACC-62 melanoma, 723 nM. The TGI was above 100 µM in the assay with EKVX NSCLC; 10.7 µM in the assay on HS 578T breast; above 67.8 µM in the assay with MALME-3M melanoma; 99.1 µM in the assay on NCI-H226 lung; above 66.9 µM in the assay with OVCAR-4 ovarian; 2.38 µM in the assay on RPMI-8226 leukemia. In addition, the TGI in the assay on RXF 393 renal was 4.76 µM; in the assay with TK-10 renal, above 71.5 µM; with UACC-62 melanoma it was 97.3 µM.

As for `COC(=O)c1[nH]nc(-c2ccccc2)c1N1CCCCC1`, the GI50 in the assay with CCRF-CEM leukemia was 72900 nM; in the assay on EKVX NSCLC, 23700 nM; in the assay on HS 578T breast it was 22400 nM; with MALME-3M melanoma, 39.3 µM; in the assay with NCI-H226 lung, 13.2 µM; with OVCAR-4 ovarian it was 86700 nM. Moreover, the GI50 was 38000 nM in the assay on RPMI-8226 leukemia, 20700 nM in the assay on RXF 393 renal, 32.5 µM in the assay with TK-10 renal and 17300 nM with UACC-62 melanoma. Besides, the TGI in the assay with CCRF-CEM leukemia was above 100 µM; in the assay with EKVX NSCLC it was 73.3 µM; with HS 578T breast, 64.7 µM; in the assay on MALME-3M melanoma, above 100 µM; in the assay on NCI-H226 lung, 36.5 µM; in the assay on OVCAR-4 ovarian, above 100 µM. In addition, the TGI with RPMI-8226 leukemia was above 100 µM; with RXF 393 renal, 54.5 µM; in the assay on TK-10 renal, 68.2 µM; in the assay with UACC-62 melanoma, 49.2 µM.

With `Cc1cc(N(CCCNc2ccnc3cc(Cl)ccc23)Cc2cccs2)nc(Cl)n1`, the GI50 was 5570 nM in the assay with CCRF-CEM leukemia; 3720 nM with EKVX NSCLC; 9290 nM in the assay on HS 578T breast; 3.06 µM with MALME-3M melanoma; 10.2 µM in the assay on NCI-H226 lung; 1690 nM with OVCAR-4 ovarian. Further, the GI50 in the assay with RPMI-8226 leukemia was 1430 nM; in the assay on RXF 393 renal, 4460 nM; in the assay with TK-10 renal it was 5.96 µM; in the assay on UACC-62 melanoma it was 5150 nM. The TGI with CCRF-CEM leukemia is above 100 µM; in the assay with EKVX NSCLC it was 27.2 µM; with HS 578T breast it was 41.5 µM; in the assay with MALME-3M melanoma it was 13.5 µM; with NCI-H226 lung it was 31.1 µM; in the assay with OVCAR-4 ovarian, 14.6 µM. In addition, the TGI in the assay with RPMI-8226 leukemia is 9.71 µM; in the assay on RXF 393 renal, 21.7 µM; in the assay on TK-10 renal it was 20.9 µM; in the assay on UACC-62 melanoma it was 21 µM.

Take `Cc1ccc(C(=O)Nc2ccc(CN3CCN(C)CC3)c(C(F)(F)F)c2)cc1C#Cc1cncc2ncccc12`: the GI50 is 902 nM with CCRF-CEM leukemia; 1120 nM in the assay with EKVX NSCLC; 232 nM in the assay with HS 578T breast; 0.113 µM in the assay with MALME-3M melanoma; 0.625 µM with NCI-H226 lung; 289 nM in the assay on OVCAR-4 ovarian. Also, the GI50 in the assay with RPMI-8226 leukemia was 584 nM; with RXF 393 renal it was 290 nM; in the assay with TK-10 renal, 0.253 µM; in the assay on UACC-62 melanoma it was 102 nM. The TGI stood at 3.61 µM in the assay on CCRF-CEM leukemia; 16.7 µM with EKVX NSCLC; 1.08 µM in the assay with HS 578T breast; 0.951 µM in the assay with MALME-3M melanoma; 6.19 µM in the assay with NCI-H226 lung; 4.75 µM in the assay with OVCAR-4 ovarian. Also, the TGI in the assay with RPMI-8226 leukemia was 7.68 µM; in the assay on RXF 393 renal it was 1.05 µM; with TK-10 renal, 1.41 µM; with UACC-62 melanoma, 1.26 µM.

`COc1cc2c(cc1OCCCCCCNC(=O)c1cc3ccccc3[nH]1)N=CC1CCCN1C2=O` (stereo not drawn): the GI50 in the assay with CCRF-CEM leukemia was 27300 nM; in the assay with EKVX NSCLC it was 14400 nM; in the assay on HS 578T breast it was 30600 nM; in the assay with MALME-3M melanoma, 20.5 µM; with NCI-H226 lung, 58 µM; in the assay on OVCAR-4 ovarian it was 89400 nM. Moreover, the GI50 was 18700 nM with RPMI-8226 leukemia, 35300 nM in the assay with RXF 393 renal, 20.7 µM in the assay with TK-10 renal and 39500 nM in the assay on UACC-62 melanoma. Besides, the TGI in the assay on CCRF-CEM leukemia is above 100 µM; in the assay on EKVX NSCLC, 65.4 µM; with HS 578T breast it was above 100 µM; in the assay on MALME-3M melanoma, above 100 µM; in the assay on NCI-H226 lung it was above 100 µM; with OVCAR-4 ovarian, above 100 µM. The TGI with RPMI-8226 leukemia is 77.6 µM; in the assay with RXF 393 renal, 54.6 µM; in the assay with TK-10 renal it was 93.6 µM; in the assay on UACC-62 melanoma, above 100 µM.

As to `Cn1c2ccccc2c2cc(-c3ccccc3)c3c(c21)C(=O)C=CC3=O`, the TGI in the assay with CCRF-CEM leukemia was above 48.5 µM; in the assay on EKVX NSCLC, above 100 µM; in the assay on HS 578T breast, 61.7 µM; in the assay on MALME-3M melanoma, 40.2 µM; with NCI-H226 lung, 76.7 µM; in the assay with OVCAR-4 ovarian it was 41.3 µM. For the same compound, the TGI in the assay with RPMI-8226 leukemia is 8.61 µM; in the assay with RXF 393 renal, 31.1 µM; in the assay on TK-10 renal, 32 µM; in the assay with UACC-62 melanoma, 44.7 µM.

With `c1ccc(-c2n(Cc3ccc4ccccc4n3)c3ccccc3[n+]2Cc2ccc3ccccc3n2)cc1`, the GI50 with CCRF-CEM leukemia was 365 nM; with EKVX NSCLC, 693 nM; in the assay on HS 578T breast, 391 nM; in the assay on MALME-3M melanoma, 0.336 µM; with NCI-H226 lung, 0.424 µM; in the assay with OVCAR-4 ovarian, 238 nM. The GI50 with RPMI-8226 leukemia is 93.6 nM; with RXF 393 renal, 304 nM; with TK-10 renal, 0.426 µM; in the assay with UACC-62 melanoma it was 306 nM. Also, the TGI was 2.81 µM with CCRF-CEM leukemia; 4.27 µM with EKVX NSCLC; 2.28 µM in the assay with HS 578T breast; 1.65 µM with MALME-3M melanoma; 2.64 µM in the assay with NCI-H226 lung; 1.82 µM in the assay on OVCAR-4 ovarian. In addition, the TGI amounted to 0.845 µM in the assay with RPMI-8226 leukemia, 1.54 µM with RXF 393 renal, 1.91 µM in the assay on TK-10 renal and 1.24 µM in the assay on UACC-62 melanoma.

With `CN(C)CCCNC(=O)c1cc2c3ccccc3[nH]c2c2ncccc12`, the GI50 was 4310 nM with CCRF-CEM leukemia; 15300 nM with EKVX NSCLC; 14500 nM with HS 578T breast; 13 µM in the assay with MALME-3M melanoma; 19.9 µM with NCI-H226 lung; 21000 nM with OVCAR-4 ovarian. Also, the GI50 is 7420 nM with RPMI-8226 leukemia, 13200 nM with RXF 393 renal, 15.5 µM in the assay with TK-10 renal and 16000 nM with UACC-62 melanoma. For the same compound, the TGI in the assay with CCRF-CEM leukemia is 56.4 µM; in the assay with EKVX NSCLC, 85.4 µM; with HS 578T breast, 38.3 µM; with MALME-3M melanoma it was 27 µM; in the assay with NCI-H226 lung, above 100 µM; in the assay on OVCAR-4 ovarian, 81.4 µM. Further, the TGI in the assay on RPMI-8226 leukemia is 32.8 µM; in the assay on RXF 393 renal, 39 µM; in the assay with TK-10 renal, above 100 µM; in the assay with UACC-62 melanoma, 30.1 µM.

For `COc1ccc(C(=O)Nc2ncc(Cc3ccc(F)cc3)s2)cc1`, the GI50 with CCRF-CEM leukemia was 44.6 nM; in the assay on EKVX NSCLC, 383 nM; with HS 578T breast, 52 nM; with MALME-3M melanoma, 0.0855 µM; in the assay with NCI-H226 lung, 0.0829 µM; in the assay with OVCAR-4 ovarian, 1380 nM. The GI50 is 37.3 nM in the assay with RPMI-8226 leukemia, 66.6 nM in the assay with RXF 393 renal, 4.31 µM in the assay on TK-10 renal and 46.9 nM in the assay on UACC-62 melanoma. Also, the TGI with CCRF-CEM leukemia was above 100 µM; in the assay on EKVX NSCLC it was above 100 µM; in the assay on HS 578T breast, 34.6 µM; in the assay on MALME-3M melanoma it was above 62.8 µM; in the assay on NCI-H226 lung, above 100 µM; in the assay with OVCAR-4 ovarian, above 100 µM. The TGI is 3.18 µM in the assay with RXF 393 renal, 98.3 µM in the assay on TK-10 renal and above 94.4 µM in the assay on UACC-62 melanoma.

`Cc1cc(C)cc(Nc2nccc(-c3c(-c4ccc(F)cc4)ncn3C3CCNCC3)n2)c1`: the GI50 was 1920 nM with CCRF-CEM leukemia; 1400 nM in the assay on EKVX NSCLC; 1960 nM with HS 578T breast; 1.61 µM with MALME-3M melanoma; 1.67 µM in the assay on NCI-H226 lung; 1490 nM in the assay on OVCAR-4 ovarian. Moreover, the GI50 with RPMI-8226 leukemia was 2070 nM; with RXF 393 renal it was 1390 nM; with TK-10 renal, 0.717 µM; with UACC-62 melanoma, 1550 nM. The TGI came out at 5.97 µM in the assay with CCRF-CEM leukemia; 3.19 µM in the assay on EKVX NSCLC; 4.36 µM in the assay with HS 578T breast; 3.39 µM in the assay on MALME-3M melanoma; 5.12 µM in the assay with NCI-H226 lung; 3.46 µM in the assay on OVCAR-4 ovarian. Moreover, the TGI is 5.18 µM in the assay with RPMI-8226 leukemia, 2.92 µM with RXF 393 renal, 2.95 µM in the assay on TK-10 renal and 2.95 µM in the assay with UACC-62 melanoma.

For the compound `COc1cc(C(=O)/C=C/c2c(-c3ccc(F)cc3)nc3sccn23)cc(OC)c1OC`, the GI50 was 2680 nM in the assay on CCRF-CEM leukemia; 3030 nM in the assay on EKVX NSCLC; 2050 nM in the assay with HS 578T breast; 3.96 µM in the assay with MALME-3M melanoma; 2.09 µM in the assay on NCI-H226 lung; 3270 nM with OVCAR-4 ovarian. Also, the GI50 in the assay on RPMI-8226 leukemia was 2590 nM; in the assay on RXF 393 renal, 945 nM; in the assay on TK-10 renal it was 3.6 µM; in the assay on UACC-62 melanoma, 2280 nM. In addition, the TGI in the assay with CCRF-CEM leukemia is above 27.3 µM; in the assay on EKVX NSCLC, above 100 µM; with HS 578T breast it was 6.44 µM; with MALME-3M melanoma, above 33.9 µM; in the assay on NCI-H226 lung, 9.99 µM; with OVCAR-4 ovarian, 38.1 µM. In addition, the TGI is 44.6 µM in the assay on RPMI-8226 leukemia, 4.23 µM with RXF 393 renal, above 24.6 µM with TK-10 renal and 13.9 µM in the assay on UACC-62 melanoma.

Take `O=C1C[C@@H](c2ccccc2)NCCCCN(O)CCCN1`: the TGI with CCRF-CEM leukemia, with EKVX NSCLC, in the assay with HS 578T breast, in the assay with MALME-3M melanoma, in the assay with NCI-H226 lung and in the assay on OVCAR-4 ovarian was above 100 µM each time. The TGI with RPMI-8226 leukemia, with RXF 393 renal, in the assay on TK-10 renal and in the assay with UACC-62 melanoma was above 100 µM in each case.

The values above are taken from PubChem BioAssay (NCI).
